Experiments:
Cbl-b [1] = molecular target: T1, Cbl-b (Homo sapiens, UniProt Q13191); test: Cbl-b Degradation Method A (FACS, anti-Cbl-b antibody staining); type: cell-based; details: Cbl-b-HiBit KI Jurkat Cells, incubated at least 20 hours; for DC50: half maximal degradation, read-out: Cbl-b Degredation Method A IC50; for Dmax: Jurkat, maximum degradation observed, read-out: Cbl-b Degredation Method A Dmax (%)
T1 construct: Cbl-b-HiBit KI Jurkat Cells were purchased from Promega; host or cells: Cbl-b-HiBiT knock-in Jurkat cells
T1 sequence (Q13191 whole entry): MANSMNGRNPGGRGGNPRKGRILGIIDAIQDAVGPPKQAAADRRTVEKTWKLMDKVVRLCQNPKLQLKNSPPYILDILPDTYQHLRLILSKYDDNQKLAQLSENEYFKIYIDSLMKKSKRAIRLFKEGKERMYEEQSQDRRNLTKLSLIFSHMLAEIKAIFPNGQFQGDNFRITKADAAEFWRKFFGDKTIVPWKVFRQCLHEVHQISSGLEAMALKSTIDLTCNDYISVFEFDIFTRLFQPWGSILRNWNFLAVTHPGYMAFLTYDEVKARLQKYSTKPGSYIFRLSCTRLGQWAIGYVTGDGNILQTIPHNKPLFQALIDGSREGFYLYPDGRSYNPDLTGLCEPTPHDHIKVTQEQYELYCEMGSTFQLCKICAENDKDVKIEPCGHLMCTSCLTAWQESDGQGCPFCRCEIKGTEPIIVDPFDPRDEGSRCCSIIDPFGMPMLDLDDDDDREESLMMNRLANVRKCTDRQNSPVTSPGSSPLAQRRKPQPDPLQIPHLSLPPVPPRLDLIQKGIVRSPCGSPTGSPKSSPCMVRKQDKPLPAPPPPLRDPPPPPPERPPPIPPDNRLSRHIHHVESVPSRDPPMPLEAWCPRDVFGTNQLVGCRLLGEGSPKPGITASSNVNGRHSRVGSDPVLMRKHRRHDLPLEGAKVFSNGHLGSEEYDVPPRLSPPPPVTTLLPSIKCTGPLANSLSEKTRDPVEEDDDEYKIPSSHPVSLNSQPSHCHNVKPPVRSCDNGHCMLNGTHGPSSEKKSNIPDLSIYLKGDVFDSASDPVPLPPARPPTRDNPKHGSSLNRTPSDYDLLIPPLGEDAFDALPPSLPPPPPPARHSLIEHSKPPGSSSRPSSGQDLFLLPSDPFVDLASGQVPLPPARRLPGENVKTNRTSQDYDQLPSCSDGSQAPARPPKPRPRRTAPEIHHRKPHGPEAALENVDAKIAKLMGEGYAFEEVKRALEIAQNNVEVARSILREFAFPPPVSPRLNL
Method in brief: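 Cbl-b-HiBit KI Jurkat cells treated with compound for at least 20 h at 37 °C, then fixed, permeabilized and stained with anti-Cbl-b antibody plus anti-rabbit AF488 secondary. Cbl-b levels read by FACS; DC50 and Dmax (percent of control) derived.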

Cbl-b [2] = molecular target: T1, Cbl-b; test: Cbl-b Degradation Method B (Nano-Glo HiBiT lytic detection); type: cell-based; details: Cbl-b-HiBit KI Jurkat Cells, incubated at least 6-24 hours; for DC50: half maximal degradation, read-out: Cbl-b Degredation Method B IC50; for Dmax / Cbl-b Degredation Method B Dmax (%): maximum degradation observed; for Dmax: read-out: Cbl-b Degredation Method B Dmax (%)
Method in brief: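 Cbl-b-HiBiT knock-in Jurkat cells (20,000/well) were treated after ~24 h plating with an 11-point 1:3 series for 6-24 h at 37° C. Remaining Cbl-b measured by Nano-Glo HiBiT lytic luminescence. DC50 and Dmax expressed as % of control.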

Structure (SMILES)	DC50 (Cbl-b [1])	DC50 (Cbl-b [2])	Dmax (Cbl-b [1])	Dmax (Cbl-b [2])	Cbl-b Degredation Method B Dmax (%) (Cbl-b [2])
Cn1cnnc1CC1(c2cccc(N3Cc4c(cc(N5CCC6(C5)CN(c5ccc7c(c5)C(=O)N(C5CCC(=O)NC5=O)C7=O)C6)cc4C(F)(F)F)C3=O)c2)COC1 (stereo not drawn) [Example 127, 2-(2,6-dioxopiperidin-3-yl)-5-{6-[2-(3-{3-[(4-methyl-4H-1,2,4-triazol-3-yl)methyl]oxetan-3-yl}phenyl)-3-oxo-7-(trifluoromethyl)-2,3-dihydro-1H-isoindol-5-yl]-2,6-diazaspiro[3.4]octan-2-yl}-2,3-dihydro-1H-isoindole-1,3-dione]	> 500 nM	> 500 nM			
Cn1cnnc1CC1(c2cccc(N3Cc4c(cc(CN5CCC(CN6CCC(c7ccc8c(c7)C(=O)N(C7CCC(=O)NC7=O)C8=O)CC6)CC5)cc4C(F)(F)F)C3=O)c2)COC1 (stereo not drawn) [Example 82, 2-(2,6-dioxopiperidin-3-yl)-5-{1-[(1-{[2-(3-{3-[(4-methyl-4H-1,2,4-triazol-3-yl)methyl]oxetan-3-yl}phenyl)-3-oxo-7-(trifluoromethyl)-2,3-dihydro-1H-isoindol-5-yl]methyl}piperidin-4-yl)methyl]piperidin-4-yl}-2,3-dihydro-1H-isoindole-1,3-dione]	> 500 nM	> 500 nM			
CC1c2nc(N3CCC(O[C@H]4CC[C@@H](CN5C[C@@H]6C[C@H]5CN6Cc5cc6c(c(C(F)(F)F)c5)CN(c5cccc(C7(Cc8nncn8C)CCC7)c5)C6=O)CC4)CC3)ccc2C(=O)N1C1CCC(=O)NC1=O (stereo partly drawn) [Example 223, 3-[7-methyl-5-oxo-2-(4-{[(1r,4r)-4-{[(1S,4S)-5-{[2-(3-{1-[(4-methyl-4H-1,2,4-triazol-3-yl)methyl]cyclobutyl}phenyl)-3-oxo-7-(trifluoromethyl)-2,3-dihydro-1H-isoindol-5-yl]methyl}-2,5-diazabicyclo[2.2.1]heptan-2-yl]methyl}cyclohexyl]oxy}piperidin-1-yl)-5H,6H,7H-pyrrolo[3,4-b]pyridin-6-yl]piperidine-2,6-dione]	5 to 50 nM	< 5 nM	35 to 70%	35 to 70%	
Cn1cnnc1CC1(c2cccc(N3Cc4c(cc(N5CC(OCC6CCN(c7ccc8c(c7)CN(C7CCC(=O)NC7=O)C8=O)CC6)C5)cc4C(F)(F)F)C3=O)c2)COC1 (stereo not drawn) [Example 21, 3-[5-[4-[[1-[2-[3-[3-[(4-methyl-1,2,4-triazol-3-yl)methyl]oxetan-3-yl]phenyl]-3-oxo-7-(trifluoromethyl)isoindolin-5-yl]azetidin-3-yl]oxymethyl]-1-piperidyl]-1-oxo-isoindolin-2-yl]piperidine-2,6-dione]	> 500 nM	> 500 nM			
Cn1cnnc1CC1(c2cccc(N3Cc4c(cc(N5CCN(C[C@H]6CC[C@H](OC7CCN(c8ccc9c(c8F)CN(C8CCC(=O)NC8=O)C9=O)CC7)CC6)CC5)cc4C(F)(F)F)C3=O)c2)COC1 (stereo partly drawn) [Example 139, 3-[4-fluoro-1-oxo-5-(4-{[(1r,4r)-4-({4-[2-(3-{3-[(4-methyl-4H-1,2,4-triazol-3-yl)methyl]oxetan-3-yl}phenyl)-3-oxo-7-(trifluoromethyl)-2,3-dihydro-1H-isoindol-5-yl]piperazin-1-yl}methyl)cyclohexyl]oxy}piperidin-1-yl)-2,3-dihydro-1H-isoindol-2-yl]piperidine-2,6-dione]	5 to 50 nM	5 to 50 nM	35 to 70%	35 to 70%	
CC(C)n1c(=O)n(C2CCC(=O)NC2=O)c2cccc(N3CCC(O[C@H]4CC[C@H](CN5CCN(Cc6cc7c(c(C(F)(F)F)c6)CN(c6cccc([C@]8(Cc9nncn9C)C[C@H](C#N)C8)c6)C7=O)CC[C@@H]5C)CC4)CC3)c21 (stereo partly drawn) [Example 326, (1r,3r)-3-[3-(6-{[(5S)-5-methyl-4-{[(1r,4r)-4-({1-[1-(2,6-dioxopiperidin-3-yl)-2-oxo-3-(propan-2-yl)-2,3-dihydro-1H-1,3-benzodiazol-4-yl]piperidin-4-yl}oxy)cyclohexyl]methyl}-1,4-diazepan-1-yl]methyl}-1-oxo-4-(trifluoromethyl)-2,3-dihydro-1H-isoindol-2-yl)phenyl]-3-[(4-methyl-4H-1,2,4-triazol-3-yl)methyl]cyclobutane-1-carbonitrile]	50 to 500 nM	< 5 nM	35 to 70%		C (C ≤ 35)
Cn1cnnc1CC1(c2cccc(N3Cc4c(cc(N5CC6(CC(CCOc7ccc8c(c7)C(=O)N(C7CCC(=O)NC7=O)C8=O)C6)C5)cc4C(F)(F)F)C3=O)c2)COC1 (stereo not drawn) [Example 20, 2-(2,6-dioxo-3-piperidyl)-5-[2-[2-[2-[3-[3-[(4-methyl-1,2,4-triazol-3-yl)methyl]oxetan-3-yl]phenyl]-3-oxo-7-(trifluoromethyl)isoindolin-5-yl]-2-azaspiro[3.3]heptan-6-yl]ethoxy]isoindoline-1,3-dione]	> 500 nM	> 500 nM			
COc1c(N2CCC(O[C@H]3CC[C@H](CN4CCC5(CC4)CN(c4cc6c(c(C(F)(F)F)c4)CN(c4cccc([C@]7(Cc8nncn8C)C[C@@H](C#N)C7)c4)C6=O)C5)CC3)CC2)ccc2c1CN(C1CCC(=O)NC1=O)C2=O (stereo partly drawn) [Example 186, (1r,3r)-3-[(4-methyl-4H-1,2,4-triazol-3-yl)methyl]-3-{3-[1-oxo-6-(7-{[(1r,4r)-4-({1-[2-(2,6-dioxopiperidin-3-yl)-4-methoxy-1-oxo-2,3-dihydro-1H-isoindol-5-yl]piperidin-4-yl}oxy)cyclohexyl]methyl}-2,7-diazaspiro[3.5]nonan-2-yl)-4-(trifluoromethyl)-2,3-dihydro-1H-isoindol-2-yl]phenyl}cyclobutane-1-carbonitrile]	5 to 50 nM	< 5 nM	35 to 70%	35 to 70%	
COc1c(N2CCC(F)(CN3CCC4(CC3)CN(c3cc5c(c(C(F)(F)F)c3)CN(c3cccc(C6(Cc7nncn7C)COC6)c3)C5=O)C4)CC2)ccc2c1CN(C1CCC(=O)NC1=O)C2=O (stereo not drawn) [Example 185, 3-{5-[4-fluoro-4-({2-[2-(3-{3-[(4-methyl-4H-1,2,4-triazol-3-yl)methyl]oxetan-3-yl}phenyl)-3-oxo-7-(trifluoromethyl)-2,3-dihydro-1H-isoindol-5-yl]-2,7-diazaspiro[3.5]nonan-7-yl}methyl)piperidin-1-yl]-4-methoxy-1-oxo-2,3-dihydro-1H-isoindol-2-yl}piperidine-2,6-dione]	5 to 50 nM	5 to 50 nM	35 to 70%	35 to 70%	
Cn1cnnc1C(c1cccc(N2Cc3c(cc(CN4CCC[C@H](CN5CCN(C[C@H]6CC[C@@H](OC7CCN(c8ccc9c(c8F)CN(C8CCC(=O)NC8=O)C9=O)CC7)CC6)CC5)C4)cc3C(F)(F)F)C2=O)c1)C1CCC1 (stereo partly drawn) [Example 158, 3-[4-fluoro-1-oxo-5-(4-{[(1r,4r)-4-[(4-{[(3S)-1-[(2-{3-[cyclobutyl(4-methyl-4H-1,2,4-triazol-3-yl)methyl]phenyl}-3-oxo-7-(trifluoromethyl)-2,3-dihydro-1H-isoindol-5-yl)methyl]piperidin-3-yl]methyl}piperazin-1-yl)methyl]cyclohexyl]oxy}piperidin-1-yl)-2,3-dihydro-1H-isoindol-2-yl]piperidine-2,6-dione]	< 5 nM	< 5 nM	> 70%	35 to 70%	
Cc1cc(N2CCC(CN3CCC4(CC3)CN(c3cc5c(c(C(F)(F)F)c3)CN(c3cccc([C@]6(Cc7nncn7C)C[C@@H](C#N)C6)c3)C5=O)C4)CC2)c(F)c2c1C(=O)N(C1CCC(=O)NC1=O)C2 (stereo partly drawn) [Example 171, (1r,3r)-3-(3-{6-[7-({1-[2-(2,6-dioxopiperidin-3-yl)-4-fluoro-7-methyl-1-oxo-2,3-dihydro-1H-isoindol-5-yl]piperidin-4-yl}methyl)-2,7-diazaspiro[3.5]nonan-2-yl]-1-oxo-4-(trifluoromethyl)-2,3-dihydro-1H-isoindol-2-yl}phenyl)-3-[(4-methyl-4H-1,2,4-triazol-3-yl)methyl]cyclobutane-1-carbonitrile]	5 to 50 nM	< 5 nM	> 70%	35 to 70%	
Cn1cnnc1C[C@]1(c2cccc(N3Cc4c(cc(CN5CCN(C[C@H]6CC[C@H](OC7CCN(c8cccc9c8n(C(F)F)c(=O)n9C8CCC(=O)NC8=O)CC7)CC6)CC5(C)C)cc4C(F)(F)F)C3=O)c2)C[C@H](C#N)C1 (stereo partly drawn) [Example 324, (1r,3r)-3-(3-{6-[(2,2-dimethyl-4-{[(1r,4r)-4-({1-[3-(difluoromethyl)-1-(2,6-dioxopiperidin-3-yl)-2-oxo-2,3-dihydro-1H-1,3-benzodiazol-4-yl]piperidin-4-yl}oxy)cyclohexyl]methyl}piperazin-1-yl)methyl]-1-oxo-4-(trifluoromethyl)-2,3-dihydro-1H-isoindol-2-yl}phenyl)-3-[(4-methyl-4H-1,2,4-triazol-3-yl)methyl]cyclobutane-1-carbonitrile]	5 to 50 nM	< 5 nM	35 to 70%		C (C ≤ 35)
Cn1cnnc1CC1(c2cccc(N3Cc4c(cc(CN5CCC(CN6CCC(COc7ccc8c(c7)C(=O)N(C7CCC(=O)NC7=O)C8=O)CC6)CC5)cc4C(F)(F)F)C3=O)c2)COC1 (stereo not drawn) [Example 84, 2-(2,6-dioxopiperidin-3-yl)-5-({1-[(1-{[2-(3-{3-[(4-methyl-4H-1,2,4-triazol-3-yl)methyl]oxetan-3-yl}phenyl)-3-oxo-7-(trifluoromethyl)-2,3-dihydro-1H-isoindol-5-yl]methyl}piperidin-4-yl)methyl]piperidin-4-yl}methoxy)-2,3-dihydro-1H-isoindole-1,3-dione]	> 500 nM	> 500 nM			

— patent US20260184710A1, “CASITAS B-LINEAGE LYMPHOMA PROTOONCOGENE B (CBL-B) DEGRADING COMPOUNDS AND ASSOCIATED METHODS OF USE” (Arvinas Operations, Inc., priority 2022, published 2026)
